Experiment: mn = molality of the nth substance listed, in mol/kg
Conditions: 298.15 K, 101 kPa, Liquid, Taylor dispersion method

CCCCCCCCCCP(C)(C)=O [decyldimethylphosphine oxide] + O
Conditions | binary diffusion coefficient [m2/s]
m1 = 0 | 5.9e-10
m1 = 0.002 | 5.8e-10
m1 = 0.003 | 5.28e-10
m1 = 0.004 | 2.07e-10
m1 = 0.0077 | 1.75e-10
m1 = 0.0111 | 1.56e-10
m1 = 0.0176 | 1.69e-10
m1 = 0.0215 | 1.63e-10
m1 = 0.0296 | 1.55e-10
m1 = 0.04 | 1.58e-10

Source: the NIST ThermoML archive (doi:10.1021/je800085u)
